Series [1] in a line: Drug concentration in liver of Sprague-Dawley rat at 30 mg/kg, po dissolved in 40% HP-beta-CD measured after 360 mins by LC-MS/MS analysis. The series is classed as ADME, organism-based. As to conditions: read-out: Drug uptake.
For a further series, the system named is Huh-7. The series can be described thus: Cytotoxicity against human HuH7 cells assessed as reduction in cell viability incubated for 24 hrs by MTT assay. The series is classed as cell-based. As to conditions: Huh-7, 24 h. On the technique in general: Tetrazolium dyes change colour on reduction, which living cells bring about.
Series [2] in a line: Ratio of drug concentration in ileum to plasma of Sprague-Dawley rat at 30 mg/kg, po dissolved in 40% HP-beta-CD measured after 360 mins by LC-MS/MS analysis. The series is classed as ADME, organism-based.
Series [3] can be described thus: Tmax in Sprague-Dawley rat at 30 mg/5 ml/kg, po dissolved in 40% HP-beta-CD. The series is classed as ADME, organism-based. As to conditions: in vivo, 30 mg/kg.
Series [4] in a line: AUC (0 to 360 mins) in Sprague-Dawley rat at 30 mg/5 ml/kg, po dissolved in 40% HP-beta-CD by trapezoidal method. The series is classed as ADME, organism-based. To be noted: in vivo, 30 mg/kg. On the set-up: time < 6 hr, dose 5 ml/kg, route oral.
The target in series [5] is T1, Bile acid receptor (Homo sapiens, UniProt Q96RI1).
T1 sequence (Q96RI1 whole entry): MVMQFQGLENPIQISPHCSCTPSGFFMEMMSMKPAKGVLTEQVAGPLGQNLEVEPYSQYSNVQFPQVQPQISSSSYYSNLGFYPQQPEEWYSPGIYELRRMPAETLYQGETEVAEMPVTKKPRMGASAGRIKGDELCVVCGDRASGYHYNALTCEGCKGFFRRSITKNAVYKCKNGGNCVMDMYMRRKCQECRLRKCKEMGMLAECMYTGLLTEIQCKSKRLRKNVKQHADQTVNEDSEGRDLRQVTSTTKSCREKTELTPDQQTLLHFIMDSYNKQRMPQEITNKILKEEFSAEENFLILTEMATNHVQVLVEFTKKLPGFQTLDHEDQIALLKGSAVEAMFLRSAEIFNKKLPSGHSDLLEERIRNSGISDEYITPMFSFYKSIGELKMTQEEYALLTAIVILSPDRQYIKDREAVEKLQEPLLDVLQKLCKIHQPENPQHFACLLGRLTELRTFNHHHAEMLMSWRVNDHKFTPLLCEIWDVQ
Kind of series: Antagonist activity at GST-tagged FXR LBD (unknown origin) assessed as inhibition of GW4064-induced fluorecein-labeled SRC2-2 coactivator recruitment by Lanthascreen TR-FRET assay. (In TR-FRET formats the signal depends on donor and acceptor labels being close together.)

Series [6] is described as follows: Volume of distribution at steady state in Sprague-Dawley rat at 1 mg/ml/kg, iv dissolved in 10% HP-beta-CD. As to conditions: in vivo, 1 mg/kg, read-out: Vdss. The format is ADME, organism-based.
The nature of series [7]: AUC (0 to 360 mins) in Sprague-Dawley rat at 1 mg/ml/kg, iv dissolved in 10% HP-beta-CD by LC-MS/MS analysis. The series is classed as ADME, organism-based. To be noted: in vivo, 1 mg/kg. On the set-up: dose 1 mg/ml/kg, time < 6 hr, route intravenous.
Series [8] in a line: Terminal half life in Sprague-Dawley rat at 1 mg/ml/kg, iv dissolved in 10% HP-beta-CD measured after 60 to 360 min after administration. As to conditions: in vivo, 1 mg/kg. The series is classed as ADME, organism-based.
The nature of series [9]: Ratio of drug concentration in liver to plasma of Sprague-Dawley rat at 30 mg/kg, po dissolved in 40% HP-beta-CD measured after 360 mins by LC-MS/MS analysis. The format is ADME, organism-based.
The nature of series [10]: Drug excretion in Sprague-Dawley rat urine at 1 mg/ml/kg, iv dissolved in 10% HP-beta-CD by LC-MS/MS analysis. The series is classed as ADME, organism-based. As to conditions: 1 mg/kg, read-out: Drug excretion.
A short description of series [11]: Drug concentration in ileum of Sprague-Dawley rat at 30 mg/kg, po dissolved in 40% HP-beta-CD measured after 360 mins by LC-MS/MS analysis. The format is ADME, organism-based. As to conditions: read-out: Drug uptake.
Series [12] addresses T1, Bile acid receptor. The series can be described thus: Antagonist activity at human FXR expressed in Huh7 cells assessed as inhibition of CDCA-induced FXR response element driven luciferase activity after 24 hrs. The series is classed as cell-based.
Series [13] can be described thus: Cmax in Sprague-Dawley rat at 30 mg/5 ml/kg, po dissolved in 40% HP-beta-CD. The series is classed as ADME, organism-based. On the set-up: dose 5 ml/kg, route oral. As to conditions: in vivo, 30 mg/kg.
A short description of series [14]: Oral bioavailability in Sprague-Dawley rat at 30 mg/5 ml/kg dissolved in 40% HP-beta-CD. The series is classed as ADME, organism-based. As to conditions: in vivo, 30 mg/kg.

Where only a bound is given, the exact number is not on record here.

In the case of `COc1ccc(Oc2ccc(N3CC(=O)N([C@@H](CC4CCN(C(=O)C(C)C)CC4)c4nc5ccc(C)cc5n4C)C3=O)cc2)cc1`, the concentration at 6 h was 1540 ng/g in series [1] and 1370 ng/g in series [11]. The figures for the IC50 in the series on Huh-7, on Bile acid receptor [5] and at Bile acid receptor [12] were above 100 µM, 7 nM and below 0.001 nM, respectively. Also, the Kp at 6 h was determined as 13 in series [2] and 15 in [9]. In [3], the Tmax is 2 h. Besides, the figures for the AUC(0-t) at 6 h in [4] and in [7] were 1580 ng·h/mL and 292 ng·h/mL, respectively. The Vd in [6] amounted to 3.86 L/kg. Also, in series [8], the half-life is 82.2 min. Besides, the dose excreted in series [10] was found to be 0.23%.
Take `CCN(CC)C(=O)c1ccc(C[C@@H](c2nc3ccc(C)cc3n2C)N2C(=O)CN(c3ccc(Oc4ccccc4)cc3)C2=O)cc1`: the IC50 was above 100 µM in the series with Huh-7, 2800 nM on Bile acid receptor [5] and 1100 nM at Bile acid receptor [12].
For the compound `Cc1ccc2nc([C@H](Cc3ccccc3)N3C(=O)CN(c4ccc(Oc5ccccc5)cc4)C3=O)n(C)c2c1`, the IC50 in the series with Huh-7 was above 100 µM; on Bile acid receptor [5] it was above 400000 nM; at Bile acid receptor [12] it was 81 nM.
In the case of `Cc1ccc2nc([C@H](CC3CCN(C(=O)C(C)C)CC3)N3C(=O)CN(c4ccc(Oc5ccc(Cl)cc5)cc4)C3=O)n(C)c2c1`, the concentration for half-maximal inhibition (IC50) is above 100 µM with Huh-7, 27 nM at Bile acid receptor [5] and 9.3 nM on Bile acid receptor [12].
In the same order, the values of `Cc1ccc2nc([C@H](CC3CCN(C(=O)C(C)C)CC3)N3C(=O)CN(c4ccc(Oc5ccccc5)cc4)C3=O)n(-c3ccc(F)cc3)c2c1` are above 100 µM, 2900 nM and 978 nM.
As for `Cc1ccc2nc([C@H](Cc3ccc(C#N)cc3)N3C(=O)CN(c4ccc(Oc5ccccc5)cc4)C3=O)n(C)c2c1`, the IC50 is above 100 µM in the series on Huh-7, 7100 nM at Bile acid receptor [5] and 781 nM at Bile acid receptor [12].
In the same order, the values of `Cc1ccc2nc([C@H](CC3CCN(S(=O)(=O)C(C)C)CC3)N3C(=O)CN(c4ccc(Oc5ccccc5)cc4)C3=O)n(C)c2c1` are above 100 µM, 126000 nM and 59.8 nM.
The like results for `Cc1ccc2nc([C@H](CC3CCN(C(=O)C(C)C)CC3)NC(=O)Nc3ccc(Oc4ccccc4)cc3)n(C)c2c1` were, in that order, above 100 µM, above 400000 nM and above 20000 nM.
As to `Cc1ccc2nc([C@H](CC3CCN(C(=O)C(C)C)CC3)N3CCN(c4ccc(Oc5ccccc5)cc4)C3=O)n(C)c2c1`, the IC50 in the series on Huh-7 is above 100 µM; at Bile acid receptor [5], 4800 nM; at Bile acid receptor [12] it was 799 nM.
The like results for `Cc1ccc2nc([C@H](Cc3ccc(C(=O)NC(C)C)cc3)N3C(=O)CN(c4ccc(Oc5ccccc5)cc4)C3=O)n(C)c2c1` were, in that order, above 100 µM, 38700 nM and 2690 nM.
`Cc1ccc2nc([C@H](CC3CCN(C(=O)C(C)C)CC3)N3C(=O)CN(c4ccc(Oc5ccccc5)cc4)C3=O)n(C)c2c1`: the concentration at 6 h in series [1] was 225 ng/g; in series [11] it was 135 ng/g. This compound came in with a Cmax in [13] of 53.4 ng/mL. Also, the Tmax in series [3] is 0.5 h. Besides, the values for the AUC(0-t) at 6 h in series [4] and in [7] were 146 ng·h/mL and 182 ng·h/mL, respectively. Also, in [6], the Vd worked out at 8.9 L/kg. The half-life in series [8] (read-out: beta t1/2) came to 124 min. Further, in series [10], the dose excreted turned out to be 0.64%. Moreover, the bioavailability in series [14] was determined as 2.76%. At Bile acid receptor [12], the IC50 was below 0.001 nM.
Take `Cc1ccc2nc([C@H](CC3CCN(C(=O)C(C)C)CC3)N3C(=O)CN(c4ccc(OC5CCCCC5)cc4)C3=O)n(C)c2c1`: the IC50 turned out to be 64.3 µM in the series with Huh-7, 180 nM on Bile acid receptor [5] and 53 nM at Bile acid receptor [12].
The like results for `Cc1ccc2nc([C@H](Cc3ccc(Cl)cc3)N3C(=O)CN(c4ccc(Oc5ccccc5)cc4)C3=O)n(C)c2c1` were, in that order, above 100 µM, above 400000 nM and above 20000 nM.
In the same order, the values of `Cc1ccc2nc([C@H](CC3CCN(C(=O)C(C)C)CC3)N3C(=O)CN(c4ccc(Oc5ccc(F)cc5)cc4)C3=O)n(C)c2c1` are above 100 µM, 35 nM and 0.05 nM.
The like results for `Cc1ccc2nc([C@H](CC3CCN(C(=O)C(C)C)CC3)N3CC(=O)N(c4ccc(Oc5ccccc5)cc4)CC3=O)n(C)c2c1` were, in that order, above 100 µM, 15000 nM and 859 nM.
Consider `Cc1ccc2nc([C@@H](CC3CCN(C(=O)C(C)C)CC3)N3C(=O)CN(c4ccc(Oc5ccccc5)cc4)C3=O)n(C)c2c1`, for which the IC50 was above 100 µM with Huh-7, 2700 nM at Bile acid receptor [5] and 41 nM at Bile acid receptor [12].
Turning to `Cc1ccc2nc([C@H](Cc3ccc(C(N)=O)cc3)N3C(=O)CN(c4ccc(Oc5ccccc5)cc4)C3=O)n(C)c2c1`, the figures for the IC50 with Huh-7, at Bile acid receptor [5] and on Bile acid receptor [12] were above 100 µM, 27300 nM and 6240 nM, respectively.
In the same order, the values of `Cc1ccc2c(c1)nc([C@H](CC1CCN(C(=O)C(C)C)CC1)N1C(=O)CN(c3ccc(Oc4ccccc4)cc3)C1=O)n2C` are above 100 µM, 51 nM and below 0.001 nM.
In the same order, the values of `Cc1ccc2nc([C@H](CC3CCN(C(=O)C(C)C)CC3)NC(=O)c3ccc(Oc4ccccc4)cc3)n(C)c2c1` are above 100 µM, above 400000 nM and above 20000 nM.
The like results for `Cc1ccc2nc([C@H](CC3CCN(C(=O)NC(C)C)CC3)N3C(=O)CN(c4ccc(Oc5ccccc5)cc4)C3=O)n(C)c2c1` were, in that order, above 100 µM, 1500 nM and 18.3 nM.
Consider `Cc1ccc2nc([C@H](CC3CCN(C(=O)C(C)C)CC3)N3C(=O)CN(c4ccc(Oc5ccccc5)cc4)C3=O)n(CC(C)C)c2c1`, for which the IC50 in the series with Huh-7 was above 100 µM; on Bile acid receptor [5], 330 nM; at Bile acid receptor [12], 2.4 nM.

For orientation: IC50 means the concentration that inhibits the measured activity by half. What is called Kp is the ratio of the level in a tissue or fluid to that in plasma or blood. For orientation: Tmax means the time at which the peak concentration occurs. By AUC(0-t) is commonly meant the area under the concentration-time curve up to a stated or last time point. Low values mean low exposure, high ones high exposure. The Cmax is the peak of the concentration-time curve. Usually bioavailability stands for the share of a dose that reaches the circulation, judged against a reference dose that is usually intravenous. Read a low bioavailability as little systemic uptake.

The values are drawn from ChEMBL document CHEMBL4340545, “Identification of potent farnesoid X receptor (FXR) antagonist showing favorable PK profile and distribution toward target tissues: Comprehensive understanding of structure-activity relationship of FXR antagonists” (Bioorg Med Chem, 2019).
